The values that follow come from patent publication US11779014B2, “Adjuvants” (SYNGENTA PARTICIPATIONS AG, priority 2017, dated 2023).

Some results are limits rather than exact numbers.

A short description of series [1]: De-gelling temperature of aqueous surfactant blends by low shear rheology (Bohlin Gemini rheometer, storage modulus vs temperature). As to conditions: for Degelling temperature: Table 18. Format: physicochemical. The procedure:
The temperatures at which blends of capped and uncapped surfactants de-gel were determined by standard low shear rheology with a Bohlin™ Gemini rheometer. The storage modulus (G′) at 1 Hz was determined at a strain of 0.001-0.002 in a standard C14 cup and bob geometry over a temperature range of 5-70° C., the exact range depending on the de-gelling point of the sample. Plots of storage modulus versus temperature were constructed and the de-gelling temperature was taken to be the point at which the modulus begins to fall rapidly from its high value in the gelled state (typically ca. 10^5 Pa) down to the final value in the de-gelled state (less than 10 Pa). Blends of surfactants were prepared at from 25 to 40% w/w total surfactant concentration in water. Samples were left in an oven at 55° C. for several days to ensure that the mixtures were homogeneous. Samples were placed in the C14 cup and the samples were de-gelled by raising the temperature in the rheometer, the bob was then inserted and the sample was then cooled at 1° C./min, whilst the storage modulus was regularly recorded during the cooling. Once the final temperature had been reached (i.e. when the sample had gelled), the temperature was then increased again and the modulus again recorded. The de-gelling temperature was determined from the increasing temperature cycle.
Degelling temperatures—the measurements relied on the same method as for ‘Example 1’ but just at 30% w/w total surfactant concentration.
De-gelling temperatures were measured using the same method as in Example 1.
(§1) This example provides de-gelling, cloud point and adjuvancy data for dodecyl 23 ethoxylate with n-hexyl cap and hexadecyl 20 ethoxylate with n-hexyl cap Cloud points were measured as described in example 1 for 1% aqueous solutions of the capped and uncapped surfactants both individually and as blends (see Table 30). Degelling temperatures were also measured as outlined in example 1 for 25, 30, 35 and 40% aqueous solutions of the capped and uncapped surfactants both individually and as blends (see Table 31).
(§2) This example provides de-gelling, cloud point and adjuvancy data for oleyl 20 ethoxylate with n-butyl, n-pentyl or benzyl ether caps end capped oleyl 20 ethoxylate. Cloud points were measured as described in example 1 for 1% aqueous solutions of the capped and uncapped surfactants both individually and as blends. Degelling temperatures were also measured as outlined in example 1 for 25, 30, 35 and 40% aqueous solutions o of the capped and uncapped surfactants both individually and as blends.

Series [2] can be described thus: Cloud point measurement (absorbance at 500 nm as a function of temperature). In kind it is physicochemical. How it is done:
Consistent with the standard method for measuring the cloud point of surfactants, the cloud point of each of the above blends was measured at a total concentration of 1% w/w in water using a Perkin Elmer spectrophotometer fitted with a PTP6 temperature controller. The absorbance of the solution at 500 nm wavelength was determined as a function of temperature. The cloud point was recorded as the onset of a rapid increase in absorbance as the solution began to cloud.
Cloud point—the measurements relied on the same method as for ‘Example 1’
Cloud points—were measured using the same method as in Example 1.
as §1, §2

The subject of series [3] is Digitaria sanguinalis (DIGSA). Nature of the series: Glasshouse adjuvancy test for nicosulfuron on DIGSA. In kind it is in vivo. How it is done:
The biological efficacies of blends of an oleyl 20 ethoxylate uncapped surfactant with an oleyl 20 ethoxylate surfactant with an n-hexyl ether cap as adjuvants for the herbicide nicosulfuron were tested in a glasshouse against three weed species sown into standard soil in pots and cultivated under controlled conditions in a glasshouse (24/18° C. day/night; 16 hours light; 65% humidity). Nicosulfuron was added to the spray tank as a standard WG (water dispersible granule) formulation. The plants were sprayed with nicosulfuron at rates of 15 or 60 grams of pesticide per hectare using a laboratory track sprayer which delivered the aqueous spray composition at a rate of 200 litres per hectare, using a flat fan nozzle (Teejet 11002VS) at 2 bar. The adjuvants were added to the spray solution at a total rate of 0.1 or 0.2% w/v in all cases and at extra lower rates for the oleyl 20EO alone and its 1:1 blend with the oleyl 20EO n-hexyl ether to show the dose response to these adjuvants. All spray solutions also contained 10% w/w of iso-propanol. The weed species and their BBCH growth stage at spraying were Chenopodium album (CHEAL; growth stage 15), Digitaria sanguinalis (DIGSA; growth stage 14), and Commelina benghalensis (COMBE; growth stage 14). Each spray test was replicated three times. The test plants were then grown in a glasshouse under controlled conditions (24/18° C. day/night; 16 hours light; 65% humidity) and watered twice a day. The efficacy of the herbicide was assessed visually and expressed as a percentage of the leaf area killed. Samples were assessed at a time period of 21 days following application. The following tables (3-8) show the effect of blends of the two surfactants at a total concentration of 0.2 and 0.1%. In each case the blends were 1:0, 3:1, 1:1, 1:3 and 0:1 w/w of oleyl 20EO:oleyl 20 EO n-hexyl ether. The biological efficacies of blends of oleyl 20 ethoxylate and oleyl 20EO ethoxylate with a benzoate cap as adjuvants for the herbicide nicosulfuron were tested in a glasshouse using the same method as for ‘Example 1’ but against just two weed species and with just 0.2% w/v total adjuvant concentration. The weed species and their BBCH growth stage at spraying HI were Chenopodium album (CHEAL; growth stage 13-15) and Digitaria sanguinalis (DIGSA; growth stage 14-22).

The mark [4] stands for this setting: total surfactant concentration 25% w/w in water, Table 1.
[5] abbreviates: total surfactant concentration 30% w/w in water, Table 1.
[6] abbreviates: total surfactant concentration 35% w/w in water, Table 1.
The mark [7] stands for this setting: total surfactant concentration 40% w/w in water, Table 1.
[8] abbreviates: total concentration 1% w/w in water, Table 2.
Where [9] appears, read: nicosulfuron 15 g ai/ha, 0.1% total surfactant concentration, 21 days, Table 8.
[10] abbreviates: nicosulfuron 15 g ai/ha, 0.2% total surfactant concentration, 21 days, Table 7.
The mark [11] stands for this setting: nicosulfuron 60 g ai/ha, 0.1% total surfactant concentration, 21 days, Table 8.
Where [12] appears, read: nicosulfuron 60 g ai/ha, 0.2% total surfactant concentration, 21 days, Table 7.

For the compound Oleyl 20EO n-hexyl ether, the De-gelling temperature turned out to be 5.0 °C in series [1] (setting [4]), 5.0 °C in series [1] (setting [5]), 5.0 °C in series [1] (setting [6]) and 16.7 °C in series [1] (setting [7]). Also, in series [2] (setting [8]), the Cloud point was 52.0 °C. The Mean control in series [3] (setting [9]) is on record as 81.7%; in series [3] (setting [10]), 73.3%; in series [3] (setting [11]) it was 75%; in series [3] (setting [12]) it was 81.7%.
Regarding `CCCCCCCC/C=C\CCCCCCCCOCCOCCOCCOCCOCCOCCOCCOCCOCCOCCOCCOCCOCCOCCOCCOCCOCCOCCOCCOCCO` [Oleyl 20EO, oleyl 20 ethoxylate], the De-gelling temperature in series [1] (30% w/w total surfactant concentration, Table 15) was found to be 42.4 °C; in series [1] (40% w/w, Table 19), 66.3 °C; in series [1] (setting [4]) it was 26.9 °C; in series [1] (total surfactant concentration 25% w/w, Table 35) it was 23.3 °C; in series [1] (setting [5]) it was 45.2 °C; in series [1] (total surfactant concentration 30% w/w, Table 35), 40.9 °C. Moreover, the De-gelling temperature in series [1] (setting [6]) was 51.3 °C; in series [1] (total surfactant concentration 35% w/w, Table 35), 56.7 °C; in series [1] (setting [7]), 70.6 °C; in series [1] (total surfactant concentration 40% w/w, Table 35), 63.1 °C. The Degelling temperature is 26.9 °C in series [1] (total surfactant concentration 25% w/w), 45.2 °C in series [1] (total surfactant concentration 30% w/w), 51.3 °C in series [1] (total surfactant concentration 35% w/w) and 70.6 °C in series [1] (total surfactant concentration 40% w/w). Also, the Cloud point in series [2] (1% aqueous solutions, Table 34) was greater than 90.0 °C; in series [2] (1%, Table 15) it was greater than 95.0 °C; in series [2] (1%, Table 20) it was greater than 95.0 °C; in series [2] (setting [8]), greater than 90 °C. For the same compound, the Mean control in series [3] (dose response, nicosulfuron 15 g ai/ha, adjuvant 0.05%) amounted to 60.0%; in series [3] (dose response, nicosulfuron 15 g ai/ha, adjuvant 0.1%), 76.7%; in series [3] (dose response, nicosulfuron 15 g ai/ha, adjuvant 0.2%) it was 83.3%; in series [3] (dose response, nicosulfuron 60 g ai/ha, adjuvant 0.05%), 53.3%; in series [3] (dose response, nicosulfuron 60 g ai/ha, adjuvant 0.1%), 60.0%; in series [3] (dose response, nicosulfuron 60 g ai/ha, adjuvant 0.2%) it was 80.0%. Also, the Mean control in series [3] (setting [9]) was determined as 76.7%; in series [3] (setting [10]), 83.3%; in series [3] (nicosulfuron 15 g ai/ha, 0.2% w/v total adjuvant, Example 3, growth stage 14-22) it was 91.3%; in series [3] (setting [11]), 60%; in series [3] (setting [12]), 80%; in series [3] (nicosulfuron 60 g ai/ha, 0.2% w/v total adjuvant, Example 3, growth stage 14-22) it was 85.0%.
